Where a name gives a salt, the structure may show the parent alone.
biological target: LsrK (Salmonella typhimurium, UniProt Q8ZKQ6); assay: biochemical; type: biochemical, S. typhimurium; conditions: not given
Sequence (Q8ZKQ6 whole entry): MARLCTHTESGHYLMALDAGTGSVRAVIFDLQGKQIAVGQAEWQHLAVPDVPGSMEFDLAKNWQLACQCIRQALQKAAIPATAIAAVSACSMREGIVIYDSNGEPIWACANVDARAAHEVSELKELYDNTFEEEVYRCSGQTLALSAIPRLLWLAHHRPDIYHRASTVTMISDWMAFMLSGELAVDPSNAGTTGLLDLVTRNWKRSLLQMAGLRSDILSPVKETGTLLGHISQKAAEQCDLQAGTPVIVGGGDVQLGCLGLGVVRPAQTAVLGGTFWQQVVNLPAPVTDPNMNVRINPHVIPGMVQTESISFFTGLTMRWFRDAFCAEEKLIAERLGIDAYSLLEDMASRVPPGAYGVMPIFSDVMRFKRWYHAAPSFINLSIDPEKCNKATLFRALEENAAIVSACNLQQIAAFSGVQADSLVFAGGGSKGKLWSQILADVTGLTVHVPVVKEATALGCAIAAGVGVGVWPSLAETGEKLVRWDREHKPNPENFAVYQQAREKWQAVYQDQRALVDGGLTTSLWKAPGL

SMILES | inhibition at 50 µM [%]
COc1cc2c(cc1OC)[C@@]13CCN4CC5=CCO[C@H]6CC(=O)N2[C@H]1[C@H]6[C@H]5C[C@H]43 [BRUCINE] | 2
O=C(Oc1cccc2cccnc12)c1ccccc1 [BENZOXIQUINE] | 0
O=C1c2c(O)cccc2Cc2cccc(O)c21 [ANTHRALIN] | 8
CCC[C@@H]1C[C@@H](C(=O)N[C@@H]([C@H]2O[C@H](SC)[C@H](O)[C@@H](O)[C@H]2O)[C@@H](C)O)N(C)C1 [LINCOMYCIN HYDROCHLORIDE] | 0
CC(COc1ccccc1)NC(C)C(O)c1ccc(O)cc1 (stereo not shown) [ISOXSUPRINE HYDROCHLORIDE] | 2
CC[C@@]1(O)C[C@H](O[C@H]2C[C@H](N(C)C)[C@H](O)[C@H](C)O2)c2c(cc3c(c2O)C(=O)c2c(O)ccc(O)c2C3=O)[C@H]1C(=O)OC [PYRROMYCIN] | 1
CNCC[C@H](Oc1cccc2ccccc12)c1cccs1 [DULOXETINE HYDROCHLORIDE] | 1
Cc1ncc(CSSCc2cnc(C)c(O)c2CO)c(CO)c1O [PYRITINOL] | 1
NCC(O)c1ccc(O)cc1 (stereo not shown) [OCTOPAMINE HYDROCHLORIDE] | 2
C=C1C(N)CC2CC1C2(C)C (stereo not drawn) [3-AMINO-beta-PINENE] | 1
N[C@@H](Cc1ccc(O)c(O)c1)C(=O)O [LEVODOPA] | 77
Cc1cnc(NC(=O)C2=C(O)c3ccccc3S(=O)(=O)N2C)s1 [MELOXICAM SODIUM] | 0
CC(C)c1nc(N(C)S(C)(=O)=O)nc(-c2ccc(F)cc2)c1/C=C/[C@@H](O)C[C@@H](O)CC(=O)O [ROSUVASTATIN CALCIUM] | 1
COc1cc2c(cc1OC)C(=O)C(CC1CCN(Cc3ccccc3)CC1)C2 (stereo not shown) [DONEPEZIL HYDROCHLORIDE] | 2
C[N+](C)(C)CCCCCCCCCC[N+](C)(C)C [DECAMETHONIUM BROMIDE] | 0
CN(C)[C@@H]1C(O)=C(C(=O)NCN2CCCC2)C(=O)[C@@]2(O)C(O)=C3C(=O)c4c(O)cccc4[C@@](C)(O)[C@H]3C[C@@H]12 [ROLITETRACYCLINE] | 5
Nc1ccc(S(=O)(=O)c2ccc(N)cc2)cc1 [DAPSONE] | 0
COc1cccc(OC)c1C(=O)N[C@@H]1C(=O)N2[C@@H]1SC(C)(C)[C@@H]2C(=O)O [METHICILLIN SODIUM] | 1
N[C@H]1C(O)O[C@H](CO)[C@@H](O)[C@@H]1O (stereo partly shown) [GLUCOSAMINE HYDROCHLORIDE] | 1
C[C@@]12C(=O)OC(=O)[C@]1(C)[C@H]1CC[C@@H]2O1 [CANTHARIDIN] | 4
CC(=O)Nc1ccc(S(=O)(=O)Nc2ccc([N+](=O)[O-])cc2)cc1 | 1
O=C(O)C1=C[C@@H](O)[C@@H](O)[C@H](O)C1 [SHIKIMIC ACID] | 1
C[C@@H]1O[C@@H]1P(=O)(O)O [FOSFOMYCIN CALCIUM] | 1
CN(C)CCc1c[nH]c2ccc(Cn3cncn3)cc12 [RIZATRIPTAN BENZOATE] | 1

SMILES | inhibition at 50 µM [%]
C[C@@H]1CC[C@@]2(NC1)O[C@H]1C[C@H]3[C@@H]4CC=C5C[C@@H](O)CC[C@]5(C)[C@H]4CC[C@]3(C)[C@H]1[C@@H]2C [SOLASODINE] | 1
CN(C/C=C/C#CC(C)(C)C)Cc1cccc2ccccc12 [TERBINAFINE HYDROCHLORIDE] | 1
O=C1c2ccccc2C(=O)c2ccccc21 [ANTHRAQUINONE] | 0
CCCCN(CCCC)CCCOC(=O)c1ccc(N)cc1 [BUTACAINE] | 3
CCN(CC)C(=O)c1ccc(O)c(OC)c1 | 0
[H]/N=C(/N)N/C(=N/[H])NCCc1ccccc1 [PHENFORMIN HYDROCHLORIDE] | 0
NC[C@H]1O[C@H](O[C@H]2[C@H](O)[C@@H](O[C@H]3O[C@H](CO)[C@@H](O)[C@H](N)[C@H]3O)[C@H](N)C[C@@H]2N)[C@H](N)C[C@@H]1O [TOBRAMYCIN] | 0
[H]/N=C(\N/C(=N/[H])Nc1ccc(Cl)cc1)NC(C)C [CHLOROGUANIDE HYDROCHLORIDE] | 1
COc1ccc2c(c1OC)C(=O)O[C@@H]2[C@H]1c2c(cc3c(c2OC)OCO3)CCN1C [NOSCAPINE HYDROCHLORIDE] | 1
CC(C)(C)CC(C)(C)c1ccc(O)c(Cc2ccc(Cl)cc2Cl)c1 [CLOFOCTOL] | 2
Cc1cc(=O)oc2cc(O)c(O)cc12 [4-METHYLESCULETIN] | 2
Oc1ccc2c(c1)OC[C@]1(O)Cc3cc(O)c(O)cc3[C@H]21 [BRAZILIN] | 133
CC(C)Nc1ncccn1 [ISAXONINE] | 0
Cc1cc(O)c2c(c1)C(=O)c1cccc(O)c1C2=O [CHRYSOPHANOL] | 1
NCCCNCCCCNCCCN [SPERMINE] | 2
O=C(O)c1cc(-c2ccc(F)cc2F)ccc1O [DIFLUNISAL] | 5
CCCc1nc(C(C)(C)O)c(C(=O)OCc2oc(=O)oc2C)n1Cc1ccc(-c2ccccc2-c2nnn[nH]2)cc1 [OLMESARTAN MEDOXOMIL] | 0
O=C(O)c1cc(O)c2c(c1)[C@H]([C@H]1c3cc(C(=O)O)cc(O)c3C(=O)c3c(O[C@@H]4O[C@H](CO)[C@@H](O)[C@H](O)[C@H]4O)cccc31)c1cccc(O[C@@H]3O[C@H](CO)[C@@H](O)[C@H](O)[C@H]3O)c1C2=O [SENNOSIDE A] | 0
CC(=O)OCC(=O)[C@@]1(O)[C@H](C)C[C@H]2[C@@H]3CCC4=CC(=O)C=C[C@]4(C)[C@@]3(F)[C@@H](O)C[C@@]21C [DEXAMETHASONE ACETATE] | 0
Cc1cccc(Nc2ccccc2C(=O)O)c1C [MEFENAMIC ACID] | 1
O=c1c2ccccc2[se]n1-c1ccccc1 [EBSELEN] | 6
CCN1CCN(C(=O)N[C@@H](C(=O)N[C@@H]2C(=O)N3C(C(=O)O)=C(CSc4nnnn4C)CS[C@H]23)c2ccc(O)cc2)C(=O)C1=O [CEFOPERAZONE SODIUM] | 0
CC1=C(CC(=O)O)c2cc(F)ccc2/C1=C\c1ccc([S+](C)[O-])cc1 (stereo not shown) | 21

same assay, conditions: 50 µM

SMILES | Inhibition (%)
COc1cc(O)c(C)c(O)c1 [2.6-DIHYDROXY-4-METHOXYTOLUENE] | 1
O=C(/C=C/c1ccc(O)cc1)c1ccccc1O [2'.4-DIHYDROXYCHALCONE] | 58
COc1cc(-c2coc3cc(OCc4ccccc4)c(OC)c(O)c3c2=O)cc(O)c1OC [IRIGENIN. 7-BENZYL ETHER] | 2
CC[C@H]1OC(=O)C[C@@H](O)[C@H](C)[C@@H](O[C@@H]2O[C@H](C)[C@@H](O[C@H]3C[C@@](C)(O)[C@@H](O)[C@H](C)O3)[C@H](N(C)C)[C@H]2O)[C@@H](CC=O)C[C@@H](C)C(=O)/C=C/C(C)=C/[C@@H]1CO[C@@H]1O[C@H](C)[C@@H](O)[C@@H](OC)[C@H]1OC [TYLOSIN TARTRATE] | 1
C/C1=C2/[N-][C@H]([C@H](CC(N)=O)[C@@]2(C)CCC(=O)NC[C@@H](C)OP(=O)([O-])O[C@H]2[C@@H](O)[C@@H](n3cnc4cc(C)c(C)cc43)O[C@@H]2CO)[C@]2(C)N=C(/C(C)=C3N=C(/C=C4N=C1[C@@H](CCC(N)=O)C\4(C)C)[C@@H](CCC(N)=O)[C@]\3(C)CC(N)=O)[C@@H](CCC(N)=O)[C@]2(C)CC(N)=O.[CH2-][C@H]1O[C@@H](n2cnc3c(N)ncnc32)[C@H](O)[C@@H]1O.[Co] [COENZYME B12] | 20

— publication PMC6627609, “Targeting Quorum Sensing: High-Throughput Screening to Identify Novel LsrK Inhibitors” (International Journal of Molecular Sciences, 2019)
